Laboratory results reported in PubChem BioAssay (NCI).
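Method: 48-hour compound exposure of cells in 96-well plates, five concentrations, linear interpolation of endpoints. TGI is the concentration that stops growth completely.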

How the values were obtained:
Experiment in all cases: inhibition of tumour cell growth, NCI panel, 48 h
KM20L2 colon = tested on: KM20L2 colon
OVCAR-4 ovarian = tested on: OVCAR-4 ovarian
NCI-H23 lung = tested on: NCI-H23 lung
SW-620 colon = tested on: SW-620 colon
SN12C renal = tested on: SN12C renal
RPMI-8226 leukemia = tested on: RPMI-8226 leukemia
EKVX NSCLC = tested on: EKVX NSCLC
A498 renal = tested on: A498 renal
SR leukemia = tested on: SR leukemia
KM12 colon = tested on: KM12 colon
SK-MEL-28 melanoma = tested on: SK-MEL-28 melanoma
UACC-62 melanoma = tested on: UACC-62 melanoma
HL-60(TB) leukemia = tested on: HL-60(TB) leukemia
HCC-2998 colon = tested on: HCC-2998 colon
CCRF-CEM leukemia = tested on: CCRF-CEM leukemia
HOP-18 NSCLC = tested on: HOP-18 NSCLC
NCI-H226 lung = tested on: NCI-H226 lung
SK-OV-3 ovarian = tested on: SK-OV-3 ovarian
MOLT-4 leukemia = tested on: MOLT-4 leukemia
SF-295 CNS = tested on: SF-295 CNS
HOP-62 NSCLC = tested on: HOP-62 NSCLC
SF-268 CNS = tested on: SF-268 CNS
SNB-19 CNS = tested on: SNB-19 CNS
DMS 114 small cell lung = tested on: DMS 114 small cell lung
LOX IMVI melanoma = tested on: LOX IMVI melanoma
UACC-257 melanoma = tested on: UACC-257 melanoma
K-562 leukemia = tested on: K-562 leukemia
NCI-H460 lung = tested on: NCI-H460 lung
OVCAR-3 ovarian = tested on: OVCAR-3 ovarian
OVCAR-5 ovarian = tested on: OVCAR-5 ovarian
MALME-3M melanoma = tested on: MALME-3M melanoma
ACHN renal = tested on: ACHN renal
SK-MEL-2 melanoma = tested on: SK-MEL-2 melanoma
DLD-1 colon = tested on: DLD-1 colon
NCI-H522 lung = tested on: NCI-H522 lung
M14 melanoma = tested on: M14 melanoma
U251 CNS = tested on: U251 CNS
IGROV1 ovarian = tested on: IGROV1 ovarian
HT29 colon = tested on: HT29 colon
LXFL 529 NSCLC = tested on: LXFL 529 NSCLC
M19-MEL melanoma = tested on: M19-MEL melanoma
SNB-75 CNS = tested on: SNB-75 CNS
SF-539 CNS = tested on: SF-539 CNS
SK-MEL-5 melanoma = tested on: SK-MEL-5 melanoma
OVCAR-8 ovarian = tested on: OVCAR-8 ovarian
A549 NSCLC = tested on: A549 NSCLC
CAKI-1 renal = tested on: CAKI-1 renal
HCT-116 colon = tested on: HCT-116 colon
COLO 205 colon = tested on: COLO 205 colon
SNB-78 CNS = tested on: SNB-78 CNS
UO-31 renal = tested on: UO-31 renal
HCT-15 colon = tested on: HCT-15 colon
786-0 renal = tested on: 786-0 renal
HOP-92 NSCLC = tested on: HOP-92 NSCLC
TK-10 renal = tested on: TK-10 renal
DMS 273 small cell lung = tested on: DMS 273 small cell lung
RXF 393 renal = tested on: RXF 393 renal

`C/C(=C1/N=C(c2cc([N+](=O)[O-])ccc2Cl)N(c2ccc(Br)cc2)C1=O)c1cc2ccccc2oc1=O` was tested, and the TGI (KM20L2 colon) was > 100 µM, the TGI (OVCAR-4 ovarian) was > 100 µM and the TGI (NCI-H23 lung) was > 100 µM. For the same compound, the TGI (SW-620 colon) was > 100 µM, the TGI (SN12C renal) was > 100 µM and the TGI (RPMI-8226 leukemia) was > 100 µM. The TGI (EKVX NSCLC) was > 100 µM, the TGI (A498 renal) was 66.8 µM and the TGI (SR leukemia) was > 100 µM. For the same compound, the TGI (KM12 colon) was > 100 µM, the TGI (SK-MEL-28 melanoma) was > 100 µM and the TGI (UACC-62 melanoma) was > 100 µM. The TGI (HL-60(TB) leukemia) was > 100 µM, the TGI (HCC-2998 colon) was 65.1 µM and the TGI (CCRF-CEM leukemia) was > 100 µM. The TGI (HOP-18 NSCLC) was > 100 µM, the TGI (NCI-H226 lung) was > 100 µM and the TGI (SK-OV-3 ovarian) was > 100 µM. For the same compound, the TGI (MOLT-4 leukemia) was > 100 µM, the TGI (SF-295 CNS) was > 100 µM and the TGI (HOP-62 NSCLC) was > 100 µM. For the same compound, the TGI (SF-268 CNS) was > 100 µM, the TGI (SNB-19 CNS) was > 100 µM and the TGI (DMS 114 small cell lung) was > 100 µM. For the same compound, the TGI (LOX IMVI melanoma) was > 100 µM, the TGI (UACC-257 melanoma) was > 100 µM and the TGI (K-562 leukemia) was > 100 µM. The TGI (NCI-H460 lung) was > 100 µM, the TGI (OVCAR-3 ovarian) was > 100 µM and the TGI (OVCAR-5 ovarian) was > 100 µM. The TGI (MALME-3M melanoma) was > 100 µM, the TGI (ACHN renal) was > 100 µM and the TGI (SK-MEL-2 melanoma) was > 100 µM. The TGI (DLD-1 colon) was > 100 µM, the TGI (NCI-H522 lung) was 52.4 µM and the TGI (M14 melanoma) was > 100 µM. The TGI (U251 CNS) was > 100 µM, the TGI (IGROV1 ovarian) was > 100 µM and the TGI (HT29 colon) was > 100 µM. For the same compound, the TGI (LXFL 529 NSCLC) was > 100 µM, the TGI (M19-MEL melanoma) was > 100 µM and the TGI (SNB-75 CNS) was > 100 µM. The TGI (SF-539 CNS) was > 100 µM, the TGI (SK-MEL-5 melanoma) was > 100 µM and the TGI (OVCAR-8 ovarian) was > 100 µM. The TGI (A549 NSCLC) was > 100 µM, the TGI (CAKI-1 renal) was > 100 µM and the TGI (HCT-116 colon) was > 100 µM. For the same compound, the TGI (COLO 205 colon) was 21.8 µM, the TGI (SNB-78 CNS) was > 100 µM and the TGI (UO-31 renal) was > 100 µM. For the same compound, the TGI (HCT-15 colon) was > 100 µM.
In the case of `COc1ccc(NC(=O)CC(=O)NN2C(=O)/C(=C/c3ccc(N(CCC#N)CCC#N)cc3C)N=C2/C=C\c2ccccc2)cc1`, the TGI (KM20L2 colon) is reported as > 100 µM, the TGI (OVCAR-4 ovarian) is reported as > 100 µM and the TGI (NCI-H23 lung) is reported as > 100 µM. The TGI (SW-620 colon) was > 100 µM, the TGI (SN12C renal) was > 100 µM and the TGI (RPMI-8226 leukemia) was > 100 µM. The TGI (A498 renal) was > 100 µM, the TGI (SR leukemia) was > 100 µM and the TGI (KM12 colon) was > 100 µM. For the same compound, the TGI (SK-MEL-28 melanoma) was > 100 µM, the TGI (UACC-62 melanoma) was > 100 µM and the TGI (HL-60(TB) leukemia) was > 100 µM. The TGI (CCRF-CEM leukemia) was > 100 µM, the TGI (HOP-18 NSCLC) was > 100 µM and the TGI (NCI-H226 lung) was > 100 µM. For the same compound, the TGI (786-0 renal) was > 100 µM, the TGI (SK-OV-3 ovarian) was > 100 µM and the TGI (MOLT-4 leukemia) was > 100 µM. For the same compound, the TGI (SF-295 CNS) was > 100 µM, the TGI (HOP-62 NSCLC) was > 100 µM and the TGI (SF-268 CNS) was > 100 µM. The TGI (SNB-19 CNS) was > 100 µM, the TGI (LOX IMVI melanoma) was > 100 µM and the TGI (UACC-257 melanoma) was > 100 µM. The TGI (HOP-92 NSCLC) was > 100 µM, the TGI (K-562 leukemia) was > 100 µM and the TGI (NCI-H460 lung) was > 100 µM. For the same compound, the TGI (OVCAR-3 ovarian) was > 100 µM, the TGI (OVCAR-5 ovarian) was > 100 µM and the TGI (MALME-3M melanoma) was > 100 µM. For the same compound, the TGI (ACHN renal) was > 100 µM, the TGI (SK-MEL-2 melanoma) was > 100 µM and the TGI (TK-10 renal) was > 100 µM. The TGI (DLD-1 colon) was > 100 µM, the TGI (NCI-H522 lung) was > 100 µM and the TGI (M14 melanoma) was > 100 µM. The TGI (U251 CNS) was > 100 µM, the TGI (IGROV1 ovarian) was > 100 µM and the TGI (HT29 colon) was > 100 µM. For the same compound, the TGI (LXFL 529 NSCLC) was > 100 µM, the TGI (M19-MEL melanoma) was > 100 µM and the TGI (SNB-75 CNS) was > 100 µM. The TGI (SF-539 CNS) was > 100 µM, the TGI (SK-MEL-5 melanoma) was > 100 µM and the TGI (OVCAR-8 ovarian) was > 100 µM. The TGI (A549 NSCLC) was > 100 µM, the TGI (CAKI-1 renal) was > 100 µM and the TGI (HCT-116 colon) was > 100 µM. For the same compound, the TGI (COLO 205 colon) was > 100 µM, the TGI (SNB-78 CNS) was > 100 µM and the TGI (UO-31 renal) was > 100 µM. For the same compound, the TGI (HCT-15 colon) was > 100 µM.
For `CC1(C=O)C(=O)CCC2(C)C3CC(=O)OC3CCC12` (stereo unspecified), the TGI (KM20L2 colon) was > 100 µM, the TGI (OVCAR-4 ovarian) was > 100 µM and the TGI (NCI-H23 lung) was > 100 µM. The TGI (SW-620 colon) was > 100 µM, the TGI (SN12C renal) was > 100 µM and the TGI (RPMI-8226 leukemia) was > 100 µM. For the same compound, the TGI (EKVX NSCLC) was > 100 µM, the TGI (KM12 colon) was > 100 µM and the TGI (SK-MEL-28 melanoma) was > 100 µM. For the same compound, the TGI (UACC-62 melanoma) was > 100 µM, the TGI (HL-60(TB) leukemia) was > 100 µM and the TGI (HCC-2998 colon) was > 100 µM. For the same compound, the TGI (CCRF-CEM leukemia) was > 100 µM, the TGI (HOP-18 NSCLC) was > 100 µM and the TGI (786-0 renal) was > 100 µM. For the same compound, the TGI (SK-OV-3 ovarian) was > 100 µM, the TGI (MOLT-4 leukemia) was > 100 µM and the TGI (SF-295 CNS) was > 100 µM. For the same compound, the TGI (HOP-62 NSCLC) was > 100 µM, the TGI (SF-268 CNS) was > 100 µM and the TGI (SNB-19 CNS) was > 100 µM. The TGI (DMS 114 small cell lung) was > 100 µM, the TGI (LOX IMVI melanoma) was > 100 µM and the TGI (UACC-257 melanoma) was > 100 µM. For the same compound, the TGI (HOP-92 NSCLC) was > 100 µM, the TGI (K-562 leukemia) was > 100 µM and the TGI (NCI-H460 lung) was > 100 µM. The TGI (OVCAR-3 ovarian) was > 100 µM, the TGI (OVCAR-5 ovarian) was > 100 µM and the TGI (MALME-3M melanoma) was > 100 µM. The TGI (ACHN renal) was > 100 µM, the TGI (SK-MEL-2 melanoma) was > 100 µM and the TGI (TK-10 renal) was > 100 µM. For the same compound, the TGI (DLD-1 colon) was > 100 µM, the TGI (NCI-H522 lung) was > 100 µM and the TGI (M14 melanoma) was > 100 µM. For the same compound, the TGI (U251 CNS) was > 100 µM, the TGI (IGROV1 ovarian) was > 100 µM and the TGI (HT29 colon) was > 100 µM. The TGI (DMS 273 small cell lung) was > 100 µM, the TGI (LXFL 529 NSCLC) was > 100 µM and the TGI (M19-MEL melanoma) was > 100 µM. The TGI (SNB-75 CNS) was > 100 µM, the TGI (RXF 393 renal) was > 100 µM and the TGI (SF-539 CNS) was > 100 µM. The TGI (SK-MEL-5 melanoma) was > 100 µM, the TGI (OVCAR-8 ovarian) was > 100 µM and the TGI (A549 NSCLC) was > 100 µM. The TGI (CAKI-1 renal) was > 100 µM, the TGI (COLO 205 colon) was > 100 µM and the TGI (UO-31 renal) was > 100 µM. For the same compound, the TGI (HCT-15 colon) was > 100 µM.
